Results: US20110150836A1, “METHODS OF TREATING HBV AND HCV INFECTION” (Gilead Sciences, Inc., priority 2009, published 2011)

System: cytokines and interferon-inducible genes
Assay: mRNA expression of cytokines and interferon-inducible genes in whole blood of healthy woodchucks (real time PCR)
Type: in vivo
Method: Compound A was administered orally to adult, WHV-negative woodchucks at two different doses. Three male woodchucks received Compound A at 0.05 mg/kg and three other male woodchucks at 0.5 mg/kg. Whole blood samples (4 mls) were collected from each woodchuck prior to dosing at T0, and then at 4, 8, 12, and 24 hours post-dose using EDTA-containing collection tubes.
The induction of an immune response in woodchucks following administration of Compound A was determined by measuring the mRNA expression of cytokines and interferon-inducible genes in whole blood samples collected at different time points. Total RNA was isolated using the QIAamp RNA Blood Mini Kit (Qiagen) according to the manufacturer's specifications. RNA was eluted into 40 μl nuclease-free water and stored at −70° C. The concentration of RNA was determined spectrophotometrically at OD 260 nm. Two μg of RNA were treated with DNase I (Invitrogen) and reverse transcribed to cDNA with MultiScribe Reverse Transcriptase (Applied Biosystems) using random hexamers. Triplicates of 2 μl cDNA were amplified by real time PCR on an ABI PRISM 7000 Sequence Detection instrument (Applied Biosystems) using SYBR GREEN Master Mix (Applied Biosystems) and woodchuck-specific primers. Amplified target genes included IFN-α, IFN-γ, TNF-α, IL-2, IL-6, IL-10 IL-12, 2′5′-OAS, IDO, and MxA. Woodchuck β-actin mRNA expression was used to normalize target gene expression. Transcription levels of woodchuck cytokines and interferon-inducible genes were represented by the formula 2ΔCt, where ΔCt indicates the difference in the threshold cycle between β-actin and target gene expression. Results were further represented as a fold-change from the transcription level at T0.

CCCCOc1nc(N)c2nc(O)n(Cc3cccc(CN4CCCC4)c3)c2n1 [Compound A, 6-amino-2-butoxy-9-(3-(pyrrolidin-1-ylmethyl)benzyl)-9H-purin-8-ol]
2′5′-OAS mRNA expression in peripheral blood, Mean (oral 0.05 mg/kg, 4 hrs): 13.89
2′5′-OAS mRNA expression, Fold-change from T0 (oral 0.05 mg/kg, 4 hrs): 3.8 fold
IDO mRNA expression in peripheral blood, Mean (oral 0.05 mg/kg, 4 hrs): 1.30
IDO mRNA expression, Fold-change from T0 (oral 0.05 mg/kg, 4 hrs): 1.1 fold
IFN-a mRNA expression in peripheral blood, Mean (oral 0.05 mg/kg, 4 hrs): 7.21
IFN-a mRNA expression, Fold-change from T0 (oral 0.05 mg/kg, 4 hrs): 3.1 fold
IFN-γ mRNA expression in peripheral blood, Mean (oral 0.05 mg/kg, 4 hrs): 2.03
IFN-γ mRNA expression, Fold-change from T0 (oral 0.05 mg/kg, 4 hrs): 1.6 fold
IL-2 mRNA expression in peripheral blood, Mean (oral 0.05 mg/kg, 4 hrs): 2.11
IL-2 mRNA expression, Fold-change from T0 (oral 0.05 mg/kg, 4 hrs): 1.9 fold
IL-6 mRNA expression in peripheral blood, Mean (oral 0.05 mg/kg, 4 hrs): 9.75
IL-6 mRNA expression, Fold-change from T0 (oral 0.05 mg/kg, 4 hrs): 2.3 fold
IL-10 mRNA expression in peripheral blood, Mean (oral 0.05 mg/kg, 4 hrs): 4.14
IL-10 mRNA expression, Fold-change from T0 (oral 0.05 mg/kg, 4 hrs): 1.7 fold
IL-12 mRNA expression in peripheral blood, Mean (oral 0.05 mg/kg, 4 hrs): 7.27
IL-12 mRNA expression, Fold-change from T0 (oral 0.05 mg/kg, 4 hrs): 4.5 fold
MxA mRNA expression in peripheral blood, Mean (oral 0.05 mg/kg, 4 hrs): 2.26
MxA mRNA expression, Fold-change from T0 (oral 0.05 mg/kg, 4 hrs): 1.4 fold
TNF-a mRNA expression in peripheral blood, Mean (oral 0.05 mg/kg, 4 hrs): 23.83
TNF-a mRNA expression, Fold-change from T0 (oral 0.05 mg/kg, 4 hrs): 3.5 fold
2′5′-OAS mRNA expression in peripheral blood, Mean (oral 0.05 mg/kg, 8 hrs): 16.96
2′5′-OAS mRNA expression, Fold-change from T0 (oral 0.05 mg/kg, 8 hrs): 4.8 fold
IDO mRNA expression in peripheral blood, Mean (oral 0.05 mg/kg, 8 hrs): 2.05
IDO mRNA expression, Fold-change from T0 (oral 0.05 mg/kg, 8 hrs): 2.2 fold
IFN-a mRNA expression in peripheral blood, Mean (oral 0.05 mg/kg, 8 hrs): 12.99
IFN-a mRNA expression, Fold-change from T0 (oral 0.05 mg/kg, 8 hrs): 4.2 fold
IFN-γ mRNA expression in peripheral blood, Mean (oral 0.05 mg/kg, 8 hrs): 4.34
IFN-γ mRNA expression, Fold-change from T0 (oral 0.05 mg/kg, 8 hrs): 3.4 fold
IL-2 mRNA expression in peripheral blood, Mean (oral 0.05 mg/kg, 8 hrs): 1.74
IL-2 mRNA expression, Fold-change from T0 (oral 0.05 mg/kg, 8 hrs): 1.5 fold
IL-6 mRNA expression in peripheral blood, Mean (oral 0.05 mg/kg, 8 hrs): 10.57
IL-6 mRNA expression, Fold-change from T0 (oral 0.05 mg/kg, 8 hrs): 2.6 fold
IL-10 mRNA expression in peripheral blood, Mean (oral 0.05 mg/kg, 8 hrs): 8.48
IL-10 mRNA expression, Fold-change from T0 (oral 0.05 mg/kg, 8 hrs): 3.4 fold
IL-12 mRNA expression in peripheral blood, Mean (oral 0.05 mg/kg, 8 hrs): 7.35
IL-12 mRNA expression, Fold-change from T0 (oral 0.05 mg/kg, 8 hrs): 4.7 fold
MxA mRNA expression in peripheral blood, Mean (oral 0.05 mg/kg, 8 hrs): 5.93
MxA mRNA expression, Fold-change from T0 (oral 0.05 mg/kg, 8 hrs): 3.8 fold
TNF-a mRNA expression in peripheral blood, Mean (oral 0.05 mg/kg, 8 hrs): 20.72
TNF-a mRNA expression, Fold-change from T0 (oral 0.05 mg/kg, 8 hrs): 3.0 fold
2′5′-OAS mRNA expression in peripheral blood, Mean (oral 0.05 mg/kg, 12 hrs): 54.92
2′5′-OAS mRNA expression, Fold-change from T0 (oral 0.05 mg/kg, 12 hrs): 15.6 fold
IDO mRNA expression in peripheral blood, Mean (oral 0.05 mg/kg, 12 hrs): 10.64
IDO mRNA expression, Fold-change from T0 (oral 0.05 mg/kg, 12 hrs): 7.7 fold
IFN-a mRNA expression in peripheral blood, Mean (oral 0.05 mg/kg, 12 hrs): 3.82
IFN-a mRNA expression, Fold-change from T0 (oral 0.05 mg/kg, 12 hrs): 1.3 fold
IFN-γ mRNA expression in peripheral blood, Mean (oral 0.05 mg/kg, 12 hrs): 2.64
IFN-γ mRNA expression, Fold-change from T0 (oral 0.05 mg/kg, 12 hrs): 2.0 fold
IL-2 mRNA expression in peripheral blood, Mean (oral 0.05 mg/kg, 12 hrs): 2.43
IL-2 mRNA expression, Fold-change from T0 (oral 0.05 mg/kg, 12 hrs): 2.1 fold
IL-6 mRNA expression in peripheral blood, Mean (oral 0.05 mg/kg, 12 hrs): 6.22
IL-6 mRNA expression, Fold-change from T0 (oral 0.05 mg/kg, 12 hrs): 1.5 fold
IL-10 mRNA expression in peripheral blood, Mean (oral 0.05 mg/kg, 12 hrs): 7.35
IL-10 mRNA expression, Fold-change from T0 (oral 0.05 mg/kg, 12 hrs): 3.0 fold
IL-12 mRNA expression in peripheral blood, Mean (oral 0.05 mg/kg, 12 hrs): 21.12
IL-12 mRNA expression, Fold-change from T0 (oral 0.05 mg/kg, 12 hrs): 12.7 fold
MxA mRNA expression in peripheral blood, Mean (oral 0.05 mg/kg, 12 hrs): 18.70
MxA mRNA expression, Fold-change from T0 (oral 0.05 mg/kg, 12 hrs): 12.5 fold
TNF-a mRNA expression in peripheral blood, Mean (oral 0.05 mg/kg, 12 hrs): 35.05
TNF-a mRNA expression, Fold-change from T0 (oral 0.05 mg/kg, 12 hrs): 5.2 fold
2′5′-OAS mRNA expression in peripheral blood, Mean (oral 0.05 mg/kg, 24 hrs): 36.91
2′5′-OAS mRNA expression, Fold-change from T0 (oral 0.05 mg/kg, 24 hrs): 11.9 fold
IDO mRNA expression in peripheral blood, Mean (oral 0.05 mg/kg, 24 hrs): 26.71
IDO mRNA expression, Fold-change from T0 (oral 0.05 mg/kg, 24 hrs): 25.6 fold
IFN-a mRNA expression in peripheral blood, Mean (oral 0.05 mg/kg, 24 hrs): 2.63
IFN-a mRNA expression, Fold-change from T0 (oral 0.05 mg/kg, 24 hrs): 1.0 fold
IFN-γ mRNA expression in peripheral blood, Mean (oral 0.05 mg/kg, 24 hrs): 1.82
IFN-γ mRNA expression, Fold-change from T0 (oral 0.05 mg/kg, 24 hrs): 1.2 fold
IL-2 mRNA expression in peripheral blood, Mean (oral 0.05 mg/kg, 24 hrs): 3.64
IL-2 mRNA expression, Fold-change from T0 (oral 0.05 mg/kg, 24 hrs): 3.2 fold
IL-6 mRNA expression in peripheral blood, Mean (oral 0.05 mg/kg, 24 hrs): 4.30
IL-6 mRNA expression, Fold-change from T0 (oral 0.05 mg/kg, 24 hrs): 1.1 fold
IL-10 mRNA expression in peripheral blood, Mean (oral 0.05 mg/kg, 24 hrs): 6.08
IL-10 mRNA expression, Fold-change from T0 (oral 0.05 mg/kg, 24 hrs): 2.3 fold
MxA mRNA expression in peripheral blood, Mean (oral 0.05 mg/kg, 24 hrs): 117.33
MxA mRNA expression, Fold-change from T0 (oral 0.05 mg/kg, 24 hrs): 69.3 fold
TNF-a mRNA expression in peripheral blood, Mean (oral 0.05 mg/kg, 24 hrs): 20.53
TNF-a mRNA expression, Fold-change from T0 (oral 0.05 mg/kg, 24 hrs): 3.2 fold
2′5′-OAS mRNA expression in peripheral blood, Mean (oral 0.5 mg/kg, 4 hrs): 33.05
2′5′-OAS mRNA expression, Fold-change from T0 (oral 0.5 mg/kg, 4 hrs): 6.5 fold
